Experimental data from the NIST ThermoML archive (doi:10.1016/j.jct.2012.01.005).

Assays:
[1] = Liquid; for mass density: 298.15 K, 101.33 kPa, Buoyancy - hydrostatic balance
[2] = refractive index (Na D-line) (dimensionless); conditions: 298.15 K; 101.33 kPa; Liquid; Standard Abbe refractometry

CCCC(=O)OCC1CO1 (stereo not drawn) [glycidyl butyrate]
Conditions | mass density [kg/m3] | refractive index
[1] | 1047 | –
[2] | – | 1.429

[1], Closed cell (Static) method
Conditions | vapor or sublimation pressure [kPa]
407.85 K | 15.74
420.25 K | 23.87
427.85 K | 29.87
434.15 K | 36.41
439.15 K | 41.34
444.25 K | 46.67
449.15 K | 55.99
449.25 K | 54.4
453.85 K | 62.67
458.15 K | 69.6
460.45 K | 74.67
464.55 K | 82.67
466.55 K | 87.33
467.15 K | 88.66
468.75 K | 93.33
471.15 K | 100

ClCC1CO1 (stereo not drawn) [1-chloro-2,3-epoxypropane]
Conditions | mass density [kg/m3] | refractive index
[1] | 1175.9 | –
[2] | – | 1.434

[1], Visual
Conditions | vapor or sublimation pressure [kPa]
370.95 K | 55.99
384.15 K | 88.66
389.35 K | 100
